Assay results from PMC8881610 (Nature Communications, 2022).
Positions count from the first letter of the chain named.

Columns and labels:
GLP-1R [1] = target: GLP-1R (Homo sapiens, UniProt P43220, W214A); test: cAMP accumulation assay, GLP-1R WT, mutant or modified constructs; assay type: cell-based; parameters: Flag; expressed in transfected cells; host or cells: HEK293T; details: GLP-1R W214A, HEK293T; for Emax: HEK-293T
Method in brief: (§1)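 HEK293T cells transiently expressing wild-type, mutant or modified human GLP-1R (HA signal peptide constructs) were used. Cells were stimulated with peptide agonists for 40 min at room temperature in HBSS with 0.5 mM IBMX and 0.1% BSA or casein. cAMP was quantified by LANCE Ultra TR-FRET (620/650 nm).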

GLP-1R [2] = target: GLP-1R (Homo sapiens, UniProt P43220, Y148A); test: as above; assay type: cell-based; parameters: Flag; expressed in transfected cells; host or cells: HEK293T; details: GLP-1R Y148A, HEK293T; for Emax: HEK-293T
Method in brief: as §1

GIPR [3] = target: T1, GIPR (Homo sapiens, UniProt P48546, Y141A); test: Whole-cell binding assay, competition with 125I-GIP1-42; parameters: acylated tirzepatide to the full-length or modified; Flag; expressed in transfected cells; details: GIPR Y141A, CHO-K1
T1 sequence (P48546 22-466 Y141A): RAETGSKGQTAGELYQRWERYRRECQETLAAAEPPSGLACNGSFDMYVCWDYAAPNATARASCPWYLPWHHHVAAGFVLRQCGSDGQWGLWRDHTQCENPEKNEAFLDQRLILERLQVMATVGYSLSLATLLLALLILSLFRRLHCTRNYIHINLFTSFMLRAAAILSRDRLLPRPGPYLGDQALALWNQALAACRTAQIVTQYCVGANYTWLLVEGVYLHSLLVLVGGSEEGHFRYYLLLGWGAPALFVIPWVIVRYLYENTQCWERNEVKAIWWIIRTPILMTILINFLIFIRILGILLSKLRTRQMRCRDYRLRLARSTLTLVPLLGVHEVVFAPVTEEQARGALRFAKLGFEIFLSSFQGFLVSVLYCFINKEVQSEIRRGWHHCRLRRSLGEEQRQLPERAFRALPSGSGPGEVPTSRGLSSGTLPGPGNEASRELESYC
Method in brief: (§2)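 Transiently transfected CHO-K1 cells expressing WT or mutant GIPR were washed in F-12 with 0.1% BSA or 0.1% casein and 33 mM HEPES, then incubated 2 h at 37 °C. After ice-cold PBS washes, cells were lysed and bound radioactivity counted (CPM).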

GIPR [4] = target: T2, GIPR (Homo sapiens, UniProt P48546, T345F); test: as above; parameters: acylated tirzepatide to the full-length or modified; Flag; expressed in transfected cells; details: GIPR T345F; CHO-K1; read-out: binding pIC50 (converted)
T2 sequence (P48546 22-466 T345F): T1 sequence (P48546 22-466 Y141A) with A120Y, T324F
Method in brief: as §2

[5] = read-out: cAMP pEC50 (converted)

Chain of GLP-1R (Homo sapiens, UniProt P43220, W214A) (P43220 24-463 W214A): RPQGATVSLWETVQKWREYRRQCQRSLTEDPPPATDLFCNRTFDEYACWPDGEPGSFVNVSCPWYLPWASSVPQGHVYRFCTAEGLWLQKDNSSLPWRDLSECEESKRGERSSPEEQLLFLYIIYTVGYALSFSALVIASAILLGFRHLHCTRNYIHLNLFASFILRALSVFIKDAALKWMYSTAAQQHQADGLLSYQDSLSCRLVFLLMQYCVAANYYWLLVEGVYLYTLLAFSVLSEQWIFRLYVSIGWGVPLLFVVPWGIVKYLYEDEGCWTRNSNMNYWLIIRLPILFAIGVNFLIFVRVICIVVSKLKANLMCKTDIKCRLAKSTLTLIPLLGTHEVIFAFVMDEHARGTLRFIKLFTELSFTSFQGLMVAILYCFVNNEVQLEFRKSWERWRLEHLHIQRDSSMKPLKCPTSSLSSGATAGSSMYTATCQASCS
Chain of GLP-1R (Homo sapiens, UniProt P43220, Y148A) (P43220 24-463 Y148A): as the sequence (P43220 24-463 W214A) above, with Y125A, A191W counted along it

| SMILES | Emax (GLP-1R [1]) [%] | Emax (GLP-1R [2]) [%] | binding pIC50 (GIPR [3]) | IC50 (GIPR [4]) [nM] | EC50 (GLP-1R [1]; [5]) [nM] | EC50 (GLP-1R [2]; [5]) [nM] | binding Span (GIPR [3]) [% WT] | IC50 (GIPR [3]; read-out: binding pIC50 (converted)) [nM] |
| --- | --- | --- | --- | --- | --- | --- | --- | --- |
| CC[C@H](C)[C@H](NC(=O)[C@H](CC(C)C)NC(=O)[C@H](Cc1c[nH]c2ccccc12)NC(=O)[C@H](CCC(N)=O)NC(=O)[C@@H](NC(=O)[C@H](Cc1ccccc1)NC(=O)[C@H](C)NC(=O)[C@H](CCCCNC(=O)COCCOCCNC(=O)COCCOCCNC(=O)CC[C@H](NC(=O)CCCCCCCCCCCCCCCCCCC(=O)O)C(=O)O)NC(=O)[C@H](CCC(N)=O)NC(=O)[C@H](C)NC(=O)[C@@H](NC(=O)[C@H](CCCCN)NC(=O)[C@H](CC(=O)O)NC(=O)[C@H](CC(C)C)NC(=O)C(C)(C)NC(=O)[C@@H](NC(=O)[C@H](CO)NC(=O)[C@H](Cc1ccc(O)cc1)NC(=O)[C@H](CC(=O)O)NC(=O)[C@H](CO)NC(=O)[C@@H](NC(=O)[C@H](Cc1ccccc1)NC(=O)[C@@H](NC(=O)CNC(=O)[C@H](CCC(=O)O)NC(=O)C(C)(C)NC(=O)[C@@H](N)Cc1ccc(O)cc1)[C@@H](C)O)[C@@H](C)O)[C@@H](C)CC)[C@@H](C)CC)C(C)C)C(=O)N[C@@H](C)C(=O)NCC(=O)NCC(=O)N1CCC[C@H]1C(=O)N[C@@H](CO)C(=O)N[C@@H](CO)C(=O)NCC(=O)N[C@@H](C)C(=O)N1CCC[C@H]1C(=O)N1CCC[C@H]1C(=O)N1CCC[C@H]1C(=O)N[C@@H](CO)C(N)=O [Tirzepatide] | 99.1 ± 1.05 | 102 ± 2.33 | N.B. | 129 | – | – | – | – |
| CCCCCCCCCCCCCCCC(=O)N[C@@H](CCC(=O)NCCCC[C@H](NC(=O)[C@H](CC(=O)O)NC(=O)[C@H](CO)NC(=O)[C@@H](NC(=O)[C@H](Cc1ccccc1)NC(=O)[C@@H](NC(=O)CNC(=O)[C@H](CCC(N)=O)NC(=O)C(C)(C)NC(=O)[C@@H](N)Cc1c[nH]cn1)[C@@H](C)O)[C@@H](C)O)C(=O)N[C@@H](CO)C(=O)N[C@@H](CCCCN)C(=O)N[C@@H](Cc1ccc(O)cc1)C(=O)N[C@@H](CC(C)C)C(=O)N[C@@H](CC(=O)O)C(=O)N[C@@H](CCC(=O)O)C(=O)N[C@@H](CCCNC(=N)N)C(=O)N[C@@H](C)C(=O)N[C@@H](C)C(=O)N[C@@H](CCC(N)=O)C(=O)N[C@@H](CC(=O)O)C(=O)N[C@@H](Cc1ccccc1)C(=O)N[C@H](C(=O)N[C@@H](CCC(N)=O)C(=O)N[C@@H](Cc1c[nH]c2ccccc12)C(=O)N[C@@H](CC(C)C)C(=O)N[C@@H](CC(C)C)C(=O)N[C@@H](CC(=O)O)C(=O)NCC(=O)NCC(=O)N1CCC[C@H]1C(=O)N[C@@H](CO)C(=O)N[C@@H](CO)C(=O)NCC(=O)N[C@@H](C)C(=O)N1CCC[C@H]1C(=O)N1CCC[C@H]1C(=O)N1CCC[C@H]1C(=O)N[C@@H](CO)C(N)=O)C(C)C)C(=O)O [Peptide 20] | 100.4 ± 0.94 | 101 ± 1.26 | – | 24 | 0.00977 | 0.00501 | 14.88 ± 1.95 | 2.4 |
